Measured values taken from patent US20230233569A1 (Revolution Medicines, Inc., priority 2020, published 2023).
Read-outs that look alike come from different tables or passages of the source.

Legend:
NCI-H358 (K-Ras G12C) = test: CellTiter-Glo cell viability assay, 5-day treatment; type: cell-based; details: Homo sapiens, NCI-H358, 120 h, 5-day treatment; read-out: H358 Cell Viability assay data (K-Ras G12C, IC50)
Summary of the method: (§1)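 Seeded cells received test compound by direct dispensing. On day 5 the plates sat at room temperature approximately 30 minutes, then luminescence was measured. Data were normalized to DMSO and curve-fitted with four parameters.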

Capan-1 (K-Ras G12V) = test: as above; type: cell-based; details: Homo sapiens, CAPAN-1, 120 h, 5-day treatment; read-out: Capan-1 Cell Viability assay data (K-Ras G12V, IC50)
Summary of the method: as §1

KRAS G13D = KRAS G13D (Homo sapiens, UniProt P01116+P62937, G13D); test: Disruption of BRAF RBD interaction with Ras (FRET / MOA assay, with Cyclophilin A); type: biochemical
Sequence of KRAS G13D (P01116 1-169 isoform P01116-2 G13D limits assumed): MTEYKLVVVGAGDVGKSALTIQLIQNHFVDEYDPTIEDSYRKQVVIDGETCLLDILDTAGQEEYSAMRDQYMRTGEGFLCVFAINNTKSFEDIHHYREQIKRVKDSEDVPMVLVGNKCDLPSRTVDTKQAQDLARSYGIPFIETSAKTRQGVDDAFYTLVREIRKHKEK
Sequence of KRAS G13D (P62937 whole entry): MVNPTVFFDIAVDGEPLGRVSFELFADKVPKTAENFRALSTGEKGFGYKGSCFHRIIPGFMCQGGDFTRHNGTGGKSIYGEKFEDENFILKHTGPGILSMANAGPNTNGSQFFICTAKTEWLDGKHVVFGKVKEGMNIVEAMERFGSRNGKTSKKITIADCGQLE
Summary of the method: (§2)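 Here, compound titrations (ten points, factor 3, from 30 μM final) act on nucleotide-bound K-Ras and Cyclophilin A, and ternary complex formation disrupts the RAF RBD interaction.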

KRAS G12D = KRAS G12D (Homo sapiens, UniProt P01116+P62937, G12D); test: as above; type: biochemical
Sequence of KRAS G12D (P01116 1-169 isoform P01116-2 G12D limits assumed): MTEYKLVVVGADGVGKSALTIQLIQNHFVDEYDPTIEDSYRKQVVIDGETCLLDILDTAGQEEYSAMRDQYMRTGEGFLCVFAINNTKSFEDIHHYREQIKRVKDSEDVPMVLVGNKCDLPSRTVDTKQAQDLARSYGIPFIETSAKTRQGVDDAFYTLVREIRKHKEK
Sequence of KRAS G12D (P62937 whole entry): as the sequence (P62937 whole entry) above
Summary of the method: as §2

KRAS G12C = KRAS G12C (Homo sapiens, UniProt P01116+P62937, G12C); test: as above; type: biochemical
Sequence of KRAS G12C (P01116 1-169 isoform P01116-2 G12C): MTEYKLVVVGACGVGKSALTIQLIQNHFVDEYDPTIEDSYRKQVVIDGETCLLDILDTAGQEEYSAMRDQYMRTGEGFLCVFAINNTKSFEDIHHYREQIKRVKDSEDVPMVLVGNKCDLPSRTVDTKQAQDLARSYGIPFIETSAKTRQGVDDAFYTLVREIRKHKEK
Sequence of KRAS G12C (P62937 whole entry): as the sequence (P62937 whole entry) above
Summary of the method: as §2

KRAS G12S = KRAS G12S (Homo sapiens, UniProt P01116+P62937, G12S); test: as above; type: biochemical
Sequence of KRAS G12S (P01116 1-169 isoform P01116-2 G12S limits assumed): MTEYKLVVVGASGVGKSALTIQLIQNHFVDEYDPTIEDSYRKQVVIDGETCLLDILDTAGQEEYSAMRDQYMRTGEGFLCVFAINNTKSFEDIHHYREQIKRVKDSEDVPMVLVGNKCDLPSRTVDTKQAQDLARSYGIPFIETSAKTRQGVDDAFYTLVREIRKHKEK
Sequence of KRAS G12S (P62937 whole entry): as the sequence (P62937 whole entry) above
Summary of the method: as §2

KRAS G13C = KRAS G13C (Homo sapiens, UniProt P01116+P62937, G13C); test: as above; type: biochemical
Sequence of KRAS G13C (P01116 1-169 isoform P01116-2 G13C): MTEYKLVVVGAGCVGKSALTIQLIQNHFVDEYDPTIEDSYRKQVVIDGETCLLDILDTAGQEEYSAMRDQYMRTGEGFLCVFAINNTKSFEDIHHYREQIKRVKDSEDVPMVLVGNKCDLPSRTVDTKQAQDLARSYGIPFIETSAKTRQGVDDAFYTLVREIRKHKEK
Sequence of KRAS G13C (P62937 whole entry): as the sequence (P62937 whole entry) above
Summary of the method: as §2

KRAS G12V = KRAS G12V (Homo sapiens, UniProt P01116+P62937, G12V); test: as above; type: biochemical
Sequence of KRAS G12V (P01116 1-169 isoform P01116-2 G12V limits assumed): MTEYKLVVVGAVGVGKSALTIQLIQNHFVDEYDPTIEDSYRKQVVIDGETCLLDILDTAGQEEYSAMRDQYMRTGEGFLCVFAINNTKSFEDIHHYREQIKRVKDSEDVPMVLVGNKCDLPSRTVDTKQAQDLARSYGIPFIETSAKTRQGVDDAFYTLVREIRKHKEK
Sequence of KRAS G12V (P62937 whole entry): as the sequence (P62937 whole entry) above
Summary of the method: as §2

NRAS G12C = NRAS G12C (Homo sapiens, UniProt P01111+P62937, G12C); test: as above; type: biochemical
Sequence of NRAS G12C (P01111 whole entry G12C): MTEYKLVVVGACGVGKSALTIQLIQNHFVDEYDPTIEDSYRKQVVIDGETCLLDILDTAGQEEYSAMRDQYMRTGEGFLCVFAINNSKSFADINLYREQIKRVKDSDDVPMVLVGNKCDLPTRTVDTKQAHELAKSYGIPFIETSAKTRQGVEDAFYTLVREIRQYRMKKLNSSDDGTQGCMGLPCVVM
Sequence of NRAS G12C (P62937 whole entry): as the sequence (P62937 whole entry) above

KRAS WT = KRAS WT (Homo sapiens, UniProt P01116+P62937); test: as above; type: biochemical
Sequence of KRAS WT (P01116 1-169 isoform P01116-2 limits assumed): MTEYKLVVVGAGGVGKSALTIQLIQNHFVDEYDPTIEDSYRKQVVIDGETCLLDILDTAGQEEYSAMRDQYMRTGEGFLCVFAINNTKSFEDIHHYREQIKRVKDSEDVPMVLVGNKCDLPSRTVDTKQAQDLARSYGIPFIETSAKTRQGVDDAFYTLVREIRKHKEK
Sequence of KRAS WT (P62937 whole entry): as the sequence (P62937 whole entry) above
Summary of the method: as §2

[1] = KRAS G13D, read-out: KRAS G13D FRET data IC50
[2] = read-out: KRAS G12D FRET data, IC50
[3] = read-out: KRAS G12C FRET data, IC50
[4] = read-out: KRAS G12S FRET data, IC50
[5] = read-out: KRAS G13C FRET data, IC50
[6] = KRAS G12V, read-out: KRAS G12V FRET data IC50
[7] = NRAS G12C, read-out: NRAS G12C FRET data IC50
[8] = KRAS WT, read-out: KRAS WT FRET data IC50

SMILES	IC50 (NCI-H358 (K-Ras G12C))	IC50 (KRAS G13D; [1])	IC50 (KRAS G12D; [2])	IC50 (KRAS G12C; [3])	IC50 (KRAS G12S; [4])	IC50 (KRAS G13C; [5])	IC50 (KRAS G12V; [6])	IC50 (NRAS G12C; [7])	IC50 (KRAS WT; [8])	IC50 (Capan-1 (K-Ras G12V))	IC50 (KRAS G13D; KRAS G13D FRET data IC50, KRAS G13D)	IC50 (KRAS G12D; KRAS G12D FRET data, IC50)	IC50 (KRAS G12C; KRAS G12C FRET data, IC50)	IC50 (KRAS G12S; KRAS G12S FRET data, IC50)	IC50 (KRAS G13C; KRAS G13C FRET data, IC50)	IC50 (KRAS G12V; KRAS G12V FRET data IC50, KRAS G12V)	IC50 (NRAS G12C; NRAS G12C FRET data IC50, NRAS G12C)	IC50 (KRAS WT; KRAS WT FRET data IC50, KRAS WT)
CCn1c(-c2cccnc2[C@H](C)OC)c2c3cc(ccc31)-c1csc(n1)C[C@H](NC(=O)[C@H](C(C)C)N(C)C(=O)[C@@H]1OCC[C@@H]1C)C(=O)N1CCC[C@H](N1)C(=O)OCC(C)(C)C2 [Example A143]	0.1 to 1 µM	1 to 10 µM	> 10 µM	1 to 10 µM	1 to 10 µM	1 to 10 µM	1 to 10 µM	1 to 10 µM	1 to 10 µM	0.1 to 1 µM	–	–	–	–	–	–	–	–
CCn1c(-c2cccnc2[C@H](C)OC)c2c3cc(ccc31)-c1cc(O)cc(c1)C[C@H](NC(=O)[C@H](C(C)C)N(C)C(=O)[C@H]1C[C@H]1C)C(=O)N1CCC[C@H](N1)C(=O)OCC(C)(C)C2 [Example A146]	0.1 to 1 µM	0.1 to 1 µM	0.1 to 1 µM	0.01 to 0.1 µM	0.1 to 1 µM	0.01 to 0.1 µM	0.01 to 0.1 µM	0.01 to 0.1 µM	0.01 to 0.1 µM	0.1 to 1 µM	–	–	–	–	–	–	–	–
CCn1c(-c2cccnc2[C@H](C)OC)c2c3cc(ccc31)-c1cc(O)cc(c1)C[C@H](NC(=O)[C@H](C(C)C)N(C)C(=O)[C@@H]1C[C@H]1C)C(=O)N1CCC[C@H](N1)C(=O)OCC(C)(C)C2 [Example A147]	0.01 to 0.1 µM	0.1 to 1 µM	0.1 to 1 µM	0.01 to 0.1 µM	0.01 to 0.1 µM	0.01 to 0.1 µM	0.01 to 0.1 µM	0.01 to 0.1 µM	0.01 to 0.1 µM	0.1 to 1 µM	–	–	–	–	–	–	–	–
CCn1c(-c2cccnc2[C@H](C)OC)c2c3cc(ccc31)-c1cc(O)cc(c1)C[C@H](NC(=O)[C@H](C(C)C)N(C)C(=O)C1CC13CCNC3)C(=O)N1CCC[C@H](N1)C(=O)OCC(C)(C)C2 (stereo partly drawn) [Example A148]	1 to 10 µM	0.01 to 0.1 µM	0.01 to 0.1 µM	0.01 to 0.1 µM	0.01 to 0.1 µM	0.01 to 0.1 µM	0.1 to 1 µM	0.01 to 0.1 µM	0.01 to 0.1 µM	1 to 10 µM	–	–	–	–	–	–	–	–
CCn1c(-c2cccnc2[C@H](C)OC)c2c3cc(ccc31)-c1cc(O)cc(c1)C[C@H](NC(=O)[C@H](C(C)C)N(C)C(=O)C13CNCC1C3)C(=O)N1CCC[C@H](N1)C(=O)OCC(C)(C)C2 (stereo partly drawn) [Example A155]	0.1 to 1 µM	0.01 to 0.1 µM	0.1 to 1 µM	0.01 to 0.1 µM	0.1 to 1 µM	0.01 to 0.1 µM	0.1 to 1 µM	0.1 to 1 µM	0.01 to 0.1 µM	1 to 10 µM	–	–	–	–	–	–	–	–
CCn1c(-c2cccnc2[C@H](C)OC)c2c3cc(ccc31)-c1cc(O)cc(c1)C[C@H](NC(=O)[C@H](C(C)C)N(C)C(=O)[C@@H]1CC1(F)F)C(=O)N1CCC[C@H](N1)C(=O)OCC(C)(C)C2 [Example A167]	0.1 to 1 µM	–	–	–	–	–	–	–	–	0.1 to 1 µM	0.1 to 1 µM	0.1 to 1 µM	0.1 to 1 µM	0.1 to 1 µM	0.1 to 1 µM	0.1 to 1 µM	0.1 to 1 µM	0.1 to 1 µM

The next lines start with results.

IC50 (NCI-H358 (K-Ras G12C))	IC50 (KRAS G13D; [1])	IC50 (KRAS G12D; [2])	IC50 (KRAS G12C; [3])	IC50 (KRAS G12S; [4])	IC50 (KRAS G13C; [5])	IC50 (KRAS G12V; [6])	IC50 (NRAS G12C; [7])	IC50 (KRAS WT; [8])	SMILES	IC50 (Capan-1 (K-Ras G12V))	IC50 (KRAS G13D; KRAS G13D FRET data IC50, KRAS G13D)	IC50 (KRAS G12D; KRAS G12D FRET data, IC50)	IC50 (KRAS G12C; KRAS G12C FRET data, IC50)	IC50 (KRAS G12S; KRAS G12S FRET data, IC50)	IC50 (KRAS G13C; KRAS G13C FRET data, IC50)	IC50 (KRAS G12V; KRAS G12V FRET data IC50, KRAS G12V)	IC50 (NRAS G12C; NRAS G12C FRET data IC50, NRAS G12C)	IC50 (KRAS WT; KRAS WT FRET data IC50, KRAS WT)
0.01 to 0.1 µM	0.1 to 1 µM	0.1 to 1 µM	0.01 to 0.1 µM	0.01 to 0.1 µM	0.01 to 0.1 µM	0.01 to 0.1 µM	0.01 to 0.1 µM	0.01 to 0.1 µM	CCn1c(-c2cccnc2[C@H](C)OC)c2c3cc(ccc31)-c1cc(O)cc(c1)C[C@H](NC(=O)[C@H](C(C)C)N(C)C(=O)C1CC13CC3)C(=O)N1CCC[C@H](N1)C(=O)OCC(C)(C)C2 (stereo partly drawn) [Example A156]	0.01 to 0.1 µM	–	–	–	–	–	–	–	–
0.1 to 1 µM	0.1 to 1 µM	0.1 to 1 µM	0.01 to 0.1 µM	0.1 to 1 µM	0.1 to 1 µM	0.1 to 1 µM	0.01 to 0.1 µM	0.01 to 0.1 µM	CCn1c(-c2cccnc2[C@H](C)OC)c2c3cc(ccc31)-c1cc(O)cc(c1)C[C@H](NC(=O)[C@H](C(C)C)N(C)C(=O)[C@@H]1CC1(C)C)C(=O)N1CCC[C@H](N1)C(=O)OCC(C)(C)C2 [Example A157]	0.1 to 1 µM	–	–	–	–	–	–	–	–
0.1 to 1 µM	0.1 to 1 µM	0.1 to 1 µM	0.01 to 0.1 µM	0.1 to 1 µM	0.01 to 0.1 µM	0.1 to 1 µM	0.01 to 0.1 µM	0.01 to 0.1 µM	CCn1c(-c2cccnc2[C@H](C)OC)c2c3cc(ccc31)-c1cc(O)cc(c1)C[C@H](NC(=O)[C@H](C(C)C)N(C)C(=O)[C@H]1CC1(F)F)C(=O)N1CCC[C@H](N1)C(=O)OCC(C)(C)C2 [Example A166]	0.1 to 1 µM	–	–	–	–	–	–	–	–
